In publication PMC6842543, “Antiparasitic effect of synthetic aromathecins on Leishmania infantum” (BMC Veterinary Research, 2019):
Converted amounts (≈) assume the structure as drawn. “Also recorded” adds a separate entry of the source. Like-named read-outs stand apart in the source and are kept apart here.

What was measured:
[1] = Cytotoxicity on uninfected splenic explants (Alamar Blue); format: cell-based, BALB/c mice; conditions: mouse, uninfected splenic explants from BALB/c mice, Alamar Blue
Procedure: (§1) The spleens were washed with cold phosphate-buffered saline (PBS), cut in small pieces and incubated for 20 min with 5 mL of 2 mg/mL collagenase D (Sigma) prepared in buffer (10 mM HEPES, pH 7.4, 150 mM NaCl, 5 mM KCl, 1 mM MgCl2 and 1.8 mM CaCl2). After that, the cell suspension obtained was passed through a 100 μm cell strainer, harvested by centrifugation (500×g for 7 min at 4 °C), washed twice with PBS, and cultured at 37 °C under 5% CO2 atmosphere in RPMI medium (Gibco) supplemented with 10 mM HEPES, 1 mM sodium pyruvate, 1xRPMI 1640 vitamin mix, 10% (v/v) FBS, 50 U/mL penicillin and 50 μg/mL streptomycin (Calvo-Álvarez et al., 2015).
(§2) The viability of cultured parasites in the presence of different concentrations of aromathecins was determined by measuring the reduction of infrared fluorescence emitted by free-living promastigotes/amastigotes with respect to negative controls of each form of the parasite treated with DMSO (up to 0.1% final concentration) as a vehicle. […] After 72 h incubation at 26 °C, the infrared fluorescence emitted at 708 nm by viable promastigotes/amastigotes was measured in an Odyssey (Li-Cor) infrared imaging system. Similarly, the cytotoxic effect (CC50) of aromathecins on uninfected splenic explants from BALB/c mice (cells that naturally harbor the amastigote stage) was measured by the Alamar Blue (Invitrogen) assay. The selectivity index (SI) was determined as the relationship between the CC50 value and the EC50 value for amastigotes. CC50 and EC50 were calculated by nonlinear analysis using the Sigma-Plot 10.0 statistical package. The aromathecins were dissolved in DMSO and stored at − 20 °C before their use as fresh aliquots.

[2] = Solubility limit in culture medium; format: physicochemical; conditions: M199 culture medium
Procedure: (§3) The CPT resistant strain used in this work was generated exposing L. infantum promastigotes to increased concentrations of CPT, from 0.1 to the solubility limit of the compound, 20 μM in the case of CPT. Parasites were grown at 26 °C in M199 medium supplemented as described previously, each culture being inoculated at an initial density of 10^6 cells/mL. The promastigotes cultured in liquid medium in the presence of 20 μM CPT, were plated on semisolid M199 medium containing 20 μM CTP in order to select a single colony.

[3] = tested on: L. infantum amastigotes; assay: Ex vivo murine splenic explant culture with intramacrophagic iRFP L. infantum amastigotes; format: cell-based, Leishmania infantum; conditions: for EC50: Leishmania infantum, 72 h, read-out: EC50 L. infantum amastigotes; for SI: Selectivity Index = CC50/EC50 (amastigotes): CC50 murine splenocytes / EC50 amastigotes
Procedure: (§4) Two series of aromathecins (Table 1) have been tested against both stages of L. infantum, free-living promastigotes and intracellular amastigotes harbored in mouse splenic cells. Experiments were carried out using a genetically modified L. infantum strain that constitutively produces the iRFP protein. This makes it possible to evaluate the viability of parasites measuring the fluorescence emitted at 708 nm.
Primary splenocyte cultures containing intramacrophagic amastigotes were obtained from dissected spleens of female BALB/c mice infected intraperitoneally with 1.5 × 10^9 metacyclic iRFP L. infantum promastigotes, 5 weeks before their sacrifice. Mice were obtained commercially (Janvier-Labs). Animals were housed in specific-pathogen free facilities and they were euthanized by cervical dislocation without anesthesia. These protocols were approved by the Animal Care Committee of University of Leon (project license SAF2017–83575-R), which complies with European Union Legislation (2010/63/UE) and Spanish Act (RD 53/2013).
as §1, §2

[4] = tested on: L. infantum promastigotes; assay: In vitro iRFP L. infantum promastigotes viability assay (infrared fluorescence); format: cell-based, Leishmania infantum; conditions: Leishmania infantum, 72 h, read-out: EC50 L. infantum promastigotes
Procedure: as §4
The antiparasitic activity of the compounds was assessed on the genetically modified iRFP L. infantum strain, which constitutively produces the infrared fluorescent protein (iRFP) when cells are viable. iRFP L. infantum was grown at 26 °C in M-199 medium (Gibco) supplemented with 25 mM HEPES pH 7.2, 0.1 mM adenine, 0.0005% (w/v) hemin, 2 μg/mL biopterin, 0.0001% (w/v) biotin, 10% (v/v) heat-inactivated fetal bovine serum (FBS) and an antibiotic cocktail comprising 50 U/mL penicillin and 50 μg/mL streptomycin.
as §2

[5] = tested on: recombinant LTopIB; assay: TopIB relaxation activity assay (supercoiled pBluescript-SK plasmid, agarose gel with ethidium bromide); format: biochemical, Leishmania; conditions: for Inhibition of LTopIB relaxation activity (in words): 0.01, 0.1, 1, 10 and 100 μM, 26 °C, 4 min; for Concentration at which partial inhibition of LTopIB started: not concentration dependent; for Total inhibition of LTopIB: only at high concentration (100 μM)
Procedure: In addition to the antileishmanial effect of these compounds, their activity as LTopIB inhibitors was analyzed in vitro (Fig. 2). Recombinant LTopIB was produced in a TopIB-defective yeast platform, and purified by standard chromatographic protocols. The effect of aromathecins (comp. 1 to 10) on LTopIB was addressed by measuring the relaxation of negatively supercoiled pBluescript-SK DNA plasmid in the presence of different concentrations of these molecules. In order to separate the nicked DNA generated by the cleavage-complex stabilization from the relaxed topoisomers, gels were run in the presence of ethidium bromide.
Fig. 2 Inhibition of LTopIB relaxation activity of negatively supercoiled pBluescript SK (−) plasmid (pSK) mediated by different aromathecins concentrations (0.01, 0.1, 1, 10 and 100 μM). The control reaction contained 1% DMSO. DNA was separated by gel electrophoresis in 1% agarose containing 0.1 μg/mL ethidium bromide. Gels were visualized with UV illumination. Key: R = relaxed DNA; Sc = supercoiled DNA; N = nicked DNA
Expression and purification of LTopIB were carried out according to a previously standardized protocol. LTopIB was purified from yeast strain EKY3 deficient in TopIB activity [MATα, ura3–52, his3Δ200, leu2Δ1, trp1Δ63, top1Δ:TRP1], transfected with the pESC-URA plasmid containing both subunits of LTopIB. Cells were grown in yeast synthetic drop-out medium without uracil (Sigma) supplemented with 2% raffinose (w/v) to OD600: 0.8–1 and induced for 10 h with 2% galactose (w/v). Yeast were harvested, washed with cold TEEG buffer (50 mM Tris-HCl pH 7.4, 1 mM EDTA, 1 mM EGTA, 10% glycerol) and resuspended to their lysis in 15 mL of 1 x TEEG buffer supplemented with 0.2 M KCl and a protease inhibitors cocktail (Thermo Scientific). Protein extract obtained was loaded on a 5 mL P-11 phosphocellulose column (Whatman International Ltd. England). LTopIB protein was eluted at 4 °C with a discontinuous gradient of KCl (0.2, 0.4, 0.6 M) in TEEG buffer.
The effect of aromathecins on recombinant LTopIB was determined by measuring the relaxation of negatively supercoiled pBluescript-SK DNA plasmid (pSK). Thus, 20 μL of reaction mixture (0.5 μg pSK; 10 mM Tris-HCl pH 7.5; 5 mM MgCl2; 0.1 mM EDTA; 15 μg/mL bovine serum albumin) along with 0.01, 0.1, 1, 10 and 100 μM of the different aromathecins were incubated at 26 °C during 4 min. The control reaction performed without aromathecins contained 1% DMSO. Reactions were stopped by adding 1% SDS (final concentration), digested with 1 mg/mL proteinase K at 37 °C during 1 h and extracted with phenol/chloroform. DNA was separated by gel electrophoresis in 1% agarose containing 0.1 μg/mL ethidium bromide in 0.1 M Tris borate EDTA buffer (pH 8.0) at 4 V/cm for 16 h. Gels were visualized with UV illumination.

[6] = tested on: L. infantum WT strain; assay: Susceptibility of WT strain promastigotes; format: cell-based, Leishmania infantum
Procedure: (§5) In order to evaluate if aromathecins would share the transporter involved in CPT resistance, one of the major problems related to the loss of effectiveness of CPT derivatives, a CPT-resistant strain was generated. The CPT-resistant strain used was generated by the exposure of L. infantum promastigotes to increasing concentrations of CPT, from 0.1 to 20 μM (CPT-20, from now on). […] Therefore, it is very likely that the resistance mechanism of CPT-20 is related to the overexpression of the ABCG6 transporter previously described as the drug-efflux pump involved in the CPT resistance mechanism. The CPT-20 strain was susceptible to the aromathecins assayed in this work (2, 5 and 10 were not assayed due to their poor effect against iRFP L. infantum promastigotes), showing very similar EC50 values to those obtained with iRFP L. infantum.

[7] = tested on: CPT-20 (CPT-resistant L. infantum promastigotes); assay: Susceptibility of CPT-resistant strain CPT-20 promastigotes; format: cell-based, Leishmania infantum; conditions: read-out: EC50 in CPT-20 strain
Procedure: as §5, §3

[8] = read-out: CC50 Murine Splenocytes
[9] = uninfected splenic explants (murine splenocytes)
[10] = splenic-infecting amastigotes, ex vivo explants from infected BALB/c mice
[11] = iRFP-L. infantum promastigotes, 26 °C, fluorescence at 708 nm, average of three experiments by duplicate

Row | Compound | CC50 at 72 h [1, 9] [nM] | SI: Selectivity Index = CC50/EC50 (amastigotes) [3] | EC50 [3, 10] [nM] | EC50 [4, 11] [µM] | Inhibition of LTopIB relaxation activity (in words) [5] | Concentration at which partial inhibition of LTopIB started [5] [µM] | further results
1 | CC[C@@]1(O)C(=O)OCc2c1cc1n(c2=O)Cc2cc3ccccc3nc2-1 [CPT, Camptothecin, reference compound] |  |  |  |  |  |  | CC50 at 72 h [1, 8]: 620 ± 10 nM; solubility [2]: 20 µM (≈ 6.97 µg/mL); EC50 [3]: 30 ± 10 nM; EC50 [4]: 1.12 ± 0.13 µM
2 | CN(C)CCCc1c2c(nc3ccccc13)-c1cc3ccccc3c(=O)n1C2 [Compound 1] | 4410 ± 1070 | 9.8 | 450 ± 140 | 6.27 ± 0.7 | partial inhibition; also recorded: inhibit the enzyme at very low concentrations | 0.01 | 
3 | NCCNCc1c2c(nc3ccccc13)-c1cc3ccccc3c(=O)n1C2 [Compound 2] | 2170 ± 270 |  | 810 ± 50 | > 20 |  |  | 
4 | NCCCCNCc1c2c(nc3ccccc13)-c1cc3ccccc3c(=O)n1C2 [Compound 3] | 2530 ± 140 | 2.5 | 1010 ± 130 | 3.71 ± 0.45 | partial inhibition | 0.01 | Total inhibition of LTopIB [5]: total inhibition
5 | O=c1c2ccccc2cc2n1Cc1c-2nc2ccccc2c1CCCNCCO [Compound 4] | 4960 ± 520 | 5.0 | 990 ± 1170 | 4.99 ± 0.31 | partial inhibition | 0.01 | 
6 | O=c1c2ccccc2cc2n1Cc1c-2nc2ccccc2c1CCCn1ccnc1 [Compound 5] |  | 5.2 | 440 ± 30 | > 20 | partial inhibition | 0.01 | CC50 at 72 h [1, 8]: 2310 ± 720 nM
7 | O=c1c2ccccc2cc2n1Cc1c-2nc2cccc(Cl)c2c1CNCCCn1ccnc1 [Compound 6] | 700 ± 120 | 3.7 | 190 ± 30 | 3.33 ± 0.17 | did not have any inhibitory effect; also recorded: do not have LTopIB inhibitory activity |  | 
8 | NCCCc1c2c(nc3cc4c(cc13)OCCO4)-c1cc3ccccc3c(=O)n1C2 [Compound 7] |  |  | 1110 ± 80 | 13.3 ± 2.74 | partial inhibition | 0.01 | CC50 at 72 h [1, 8]: 310 ± 40 nM; Total inhibition of LTopIB [5]: total inhibition
9 | CN(C)Cc1c2c(nc3cc4c(cc13)OCCO4)-c1cc3ccccc3c(=O)n1C2 [Compound 8] | 3720 ± 760 | 10.6 | 350 ± 30 | 5.09 ± 0.82 |  |  | Nicked DNA from cleavage-complex stabilization ([5]; gel run in the presence of ethidium bromide): weak band of nicked DNA; also recorded: nick DNA from cleavage-complex stabilization
10 | CN(C)CCCc1c2c(nc3cc4c(cc13)OCCO4)-c1cc3ccccc3c(=O)n1C2 [Compound 9] | 3040 ± 1060 | 8.0 | 370 ± 1060 | 3.03 ± 0.45 | only happed at a high concentration |  | Total inhibition of LTopIB [5]: total inhibition
11 | O=c1c2ccccc2cc2n1Cc1c-2nc2cc3c(cc2c1Cn1ccnc1)OCCO3 [Compound 10] | 5560 ± 1130 | 9.3 | 580 ± 50 | > 20 | did not have any inhibitory effect; also recorded: do not have LTopIB inhibitory activity |  | 
12 | CCc1c2c(nc3ccc(O)cc13)-c1cc3c(c(=O)n1C2)COC(=O)[C@]3(O)CC [SN38] |  |  |  |  |  |  | EC50 [6]: 4.73 ± 0.14 µM; EC50 ([7]; CPT-resistant L. infantum promastigotes selected up to 20 μM CPT): 40.98 ± 0.3 µM
13 | CC[C@@]1(O)C(=O)OCc2c1cc1n(c2=O)Cc2cc3c(CN(C)C)c(O)ccc3nc2-1 [topotecan] |  |  |  |  |  |  | EC50 ([6]; Leishmania infantum): 9.54 ± 0.22 µM; EC50 ([7]; Leishmania infantum): > 100 µM
